Tested on: cyclooxygenase
Test: ARBC whole cell cyclooxygenase assay (RBL-1 cells, PGF2α)
Assay type: cell-based, rat
Settings: RBL-1 intact cell cyclooxygenase, PGF2α by RIA, A23187 5 μM
Method: ARBL/ARBC Whole Cell 5-Lipoxygenase and Cyclooxygenase Assays
The rat basophilic leukemia cell line (RBL-1) was obtained from the American Type Culture Collection (Rockville, Md.).
Radioimmuno assay (RIA) kits of LTB4 and PGF2α were obtained from Amersham (Arlington Heights, IL) and Seragen (Boston, Mass.) respectively.
All tissue culture media were obtained from GIBCO (Grand Island, N.Y.).
RBL-1 cells were grown in culture (suspension) in Eagle's minimum essential medium supplemented with fetal bovine serum and 1:100 antibiotic-antimycotic mixture at 37° C. in an incubator supplied with air-5% carbon dioxide. Cells were harvested by centrifugation. They were washed with cold phosphate buffered saline pH 7.4 (PBS; NaCl, 7.1 g; Na2 HPO4, 1.15 g; KH2 PO4, 0.2 g; and KCl, 0.2 g/L). […] Calcium ionophore A23187 (5 μM) was added and cells were incubated for seven minutes at 37° C. The reaction was stopped by chilling the tubes in ice for ten minutes. Cells were separated by centrifugation and the supernatant was stored at -20° . Aliquots (100 μl) were analyzed for LTB4 and PGF2α using radioimmuno assay kits as provided by the supplier.

Row | Structure (SMILES) | IC50
1 | COC(=O)Cn1nc(C)cc1C=Cc1cc(C(C)(C)C)c(O)c(C(C)(C)C)c1 [Example 10G-2] | > 30 µM
2 | COC(=O)C(=Cc1cc(OC)c(O)c(OC)c1)c1cc(C)no1 [Example 40, 5-[α-Carbomethoxy-β-(4'-hydroxy-3',5'-dimethoxyphenyl)ethenyl]-3-methylisoxazole] | > 25 µM
3 | Cc1cc(C(=Cc2cc(C)c(O)c(C)c2)C(=O)O)on1 [Example 52, 5-[α-carboxy-β-(4'-hydroxy-3',5'-dimethylphenyl)ethenyl]-3-methylisoxazole] | > 20 µM
4 | COC(=O)Cn1nc(C=Cc2cc(C(C)(C)C)c(O)c(C(C)(C)C)c2)cc1C [Example 10G-1] | > 30 µM

Continued, values first:

Row | IC50 | Structure (SMILES)
5 | > 30 µM | COC(=O)Cn1nc(C=Cc2cc(OC)c(O)c(OC)c2)cc1C [Example 10H, 3-[β-(4'-Hydroxy-3',5'-dimethoxyphenyl)ethenyl]-5-methyl-1H-pyrazole-1-acetic acid, methyl ester]
6 | > 25 µM | COC(=O)Cn1nc(C)cc1C=Cc1ccc(O)c(OC)c1 [Example 10I, 5-[β-(4'-Hydroxy-3'-methoxyphenyl)ethenyl]-3-methyl-1H-pyrazole-1-acetic acid methyl ester]
7 | > 30 µM | Cc1cc(C=Cc2cc(C(C)(C)C)c(O)c(C(C)(C)C)c2)nn1CC(=O)O [Example 10Q, 3-[β-(4'-Hydroxy-3',5'-di-t-butylphenyl)ethenyl]-5-methyl-1H-pyrazole-1-acetic acid]
8 | > 30 µM | CCOC(=O)Cn1nc(C)cc1/C=C/c1cc(OC)c(O)c(OC)c1 [Example 10D, (E)-5-[β-(4'-Hydroxy-3',5'-dimethoxyphenyl)ethenyl]-3-methyl-1H-pyrazole-1-acetic acid, ethyl ester]
9 | > 30 µM | Cc1cc(C=Cc2cc(C(C)(C)C)c(O)c(C(C)(C)C)c2)n(CC(=O)O)n1 [Example 10P, 5-[β-(4'-Hydroxy-3',5'-di-t-butylphenyl)ethenyl]-3-methyl-1H-pyrazole-1-acetic acid]
10 | > 30 µM | Cc1cc(C=Cc2cc(Cl)cc(Cl)c2O)on1 [Example 32J, 5-[β-(2'-Hydroxy-3',5'-dichlorophenyl)ethenyl]-3-methylisoxazole]
11 | > 30 µM | COc1cc(C=Cc2cc(C)nn2CC(=O)O)cc(OC)c1O [Example 10M, 5-[β-(4'-Hydroxy-3',5'-dimethoxyphenyl)ethenyl]-3-methyl-1H-pyrazole-1-acetic acid]
12 | > 30 µM | COc1cc(C=Cc2cc(C)n(CC(=O)O)n2)cc(OC)c1O [Example 10N, 3-[β-(4'-Hydroxy-3',5'-dimethoxyphenyl)ethenyl]-5-methyl-1H-pyrazole-1-acetic acid]
